Results taken from patent US11964960B2 (Cornell University, priority 2018, dated 2024).

Key:
[1] = cited from earlier work
S1PR2 [2] = biological target: T1, S1PR2 (Homo sapiens, UniProt O95136); settings: Bioorg. Med. Chem. 21: 5373-5382 (2013); cited from earlier work
Target sequence in this assay (O95136 whole entry): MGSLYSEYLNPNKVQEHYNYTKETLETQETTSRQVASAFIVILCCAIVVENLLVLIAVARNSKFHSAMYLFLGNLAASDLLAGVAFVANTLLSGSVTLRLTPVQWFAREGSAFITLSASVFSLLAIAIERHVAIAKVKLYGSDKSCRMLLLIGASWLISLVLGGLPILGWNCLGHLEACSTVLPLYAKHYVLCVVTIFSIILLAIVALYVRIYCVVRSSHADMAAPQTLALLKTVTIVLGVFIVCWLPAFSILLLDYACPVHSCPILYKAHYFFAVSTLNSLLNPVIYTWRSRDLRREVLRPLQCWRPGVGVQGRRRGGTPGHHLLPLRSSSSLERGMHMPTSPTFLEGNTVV

S1P2 = biological target: T2, S1P2 (Homo sapiens, UniProt O95136); assay: GLISA RhoA activation - antagonist assay; type: cell-based; settings: CHO-S1P2-FL cells; for inhibition at 1 µM: 1 μM compound; for IC50: 1 hour compound incubation, then for 5 min
T2 construct: Flag; expressed in transfected cells; host or cells: Chinese hamster ovary (CHO) cells, doxycycline-inducible (CHO-S1P2-FL / CHO-S1PR2 FL)
T2 sequence (O95136 whole entry, species assumed): as the sequence (O95136 whole entry) above
Protocol: GLISA RhoA Activation—Antagonist Assay
GLISA assays were performed using RhoA (BK124) activation kit purchased from Cytoskeleton Inc., Denver, CO Doxycycline-inducible Flag-tag S1P2 expressing Chinese hamster ovary (CHO) cells (CHO-S1P2-FL) were seeded in a 6-well plate, 1.5×10^5 cells per well. Cells were stimulated with […] of Doxycycline to induce S1P2 expression in serum free IMDM media with 0.1% BSA/PBS. Following day, cells were stimulated with the compounds described herein (1 nM-10 μM) or 1 μM JTE-013 for 1 hour at 37° C. Following compound incubation, cells were washed with PBS×3 and induced with 100 nM […] for 5 min. […] Protein concentration was examined using GLISA—Precision Red Advanced Protein assay reagent as described in assay manual. Lysates were immobilized on GTP-bound capture plate and GLISA assay was performed based on manufacture recommendations as reported previously.

S1PR2 [3] = biological target: T1, S1PR2; assay: FLIPR calcium activation - antagonist assay; type: cell-based; set-up: Flag; expressed in transfected cells; host or cells: Chinese hamster ovary (CHO) cells, doxycycline-inducible (CHO-S1P2-FL / CHO-S1PR2 FL); settings: CHO-S1PR2 FL cells, 1 hour compound incubation
Protocol: FLIPR Calcium Activation—Antagonist Assay
An assay was performed using Fluo-4 NW Calcium activation kit (#F36206) purchased from Molecular Probes/Life Technologies, Grand Island, NY. Calcium assay was performed according to the manufacturer's instructions. Briefly, CHO-S1PR2 FL cells (5×10^4 cells (for 384 well plate) or 7.5×10^4 cells (for 96 well plate)) were seeded 24 hours prior to experiment in serum free IMDM media supplemented with 0.1% fatty acid free BSA/PBS (SFM). After starvation, cells were stimulated with the compounds described herein (1 nM-10 μM) for 1 hour in SFM at room temperature. Cells were then washed with PBS and prepared for Calcium induction assay as instructed in Fluo-4 NW Calcium activation kit protocol. For calcium induction, 100 nM […] or 1 μM ATP were added in ligand plate places in the Hamamatsu FDSS6000 drug screening system. Ligand was added in 15 seconds intervals for 15 min and signal ratio of […] was measured using the Hamamatsu FDSS6000 instrument.
Target sequence in this assay (O95136 whole entry, species assumed): as the sequence (O95136 whole entry) above

[4] = tested on: BDL murine models of liver disease; settings: multiple studies (Wang 2017; Yang 2015); cited from earlier work
[5] = tested on: WT mice subjected to ischemia/reperfusion (I/R); settings: I/R (Kim 2015); cited from earlier work
S1PR2 [6] = biological target: T3, S1PR2 (Mus musculus, UniProt P52592); assay: Immunoblot analysis of S1PR2 levels in liver tissue from mouse BDL study; type: in vivo; settings: 30 mg/kg daily, orally; liver at end of eight-day study (FIG. 3)
T3 construct: Liver tissues were collected at necropsy, flash frozen, and pulverized; from tissue; host or cells: mouse liver (bile duct ligation model)
T3 sequence (P52592 whole entry): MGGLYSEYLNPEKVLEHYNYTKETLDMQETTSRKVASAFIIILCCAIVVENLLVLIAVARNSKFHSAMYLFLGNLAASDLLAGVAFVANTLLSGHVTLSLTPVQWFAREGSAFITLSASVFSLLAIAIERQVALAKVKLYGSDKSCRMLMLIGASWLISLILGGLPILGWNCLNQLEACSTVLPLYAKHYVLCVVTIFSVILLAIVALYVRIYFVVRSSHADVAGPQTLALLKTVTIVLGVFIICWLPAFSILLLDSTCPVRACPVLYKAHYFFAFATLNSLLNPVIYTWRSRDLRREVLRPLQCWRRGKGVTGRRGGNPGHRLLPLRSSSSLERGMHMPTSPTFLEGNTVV
From the text: Liver tissues were collected at necropsy, flash frozen, and pulverized. The powder was resuspended in RIPA lysis buffer with PI, NAF, and sodium deoxy cholate.
Liver samples collected in an identical manner from S1PR2 global KO and WT mice served as positive controls.

bile duct ligated mice = assay: Bile duct ligation (BDL) liver fibrosis model; type: in vivo, mouse; settings: 30 mg/kg daily
Protocol: Six to eight-week-old mice were subjected to bile duct ligation to induce mouse cirrhotic liver injury model. To perform BDL, mice were subjected to a mid-abdominal incision, under general anesthesia. The common bile duct was ligated in two adjacent positions approximately 1 cm from the porta hepatis. The duct was then severed by incision between the two sites of ligation. One day after surgery, mice were administered compounds described herein at […] once daily. Drug delivery was performed by gavage in 0.5% methylcellulose with 0.1 Tween 80. Eight days after BDL surgery mice were harvested, though the harvesting can be performed at any suitable period of time, including 14 days after BDL surgery. Blood serum was collected for liver enzyme analysis and livers were harvested and were either snap frozen or fixed with 4% PFA and cryopreserved in OCT for sectioning and immunohistochemical analysis.
To test whether the compounds described herein act as S1PR2 antagonists in vivo, their effect was tested in BDL, a clinically relevant liver cholestasis model. The common bile duct was ligated and resected as described herein to cause biliary epithelial damage. One day post-surgery, mice were treated daily with 30 mg/kg of compound 29 or JTE-013:
In this double-blind mouse BDL study, the compounds were administered orally by gavage. […]

Row | inhibition at 1 µM (S1P2) | IC50 (S1P2) | IC50 (S1PR2 [3]) | Structure (SMILES) | further results
1 | – | – | – | Cc1cc(C(=O)Cn2cc(C#N)ccc2=O)c(C)n1Cc1ccccc1 [CYM-5520] | aqueous solubility [1]: poor aqueous solubility; activity at the S1PR2 receptor (S1PR2 [2]): weak allosteric agonist
2 | 87% | 52 nM | 58 nM | Cc1cc(C(=O)Cn2cc(Br)ccc2=O)c(C)n1Cc1ccccc1 [Compound 1, 1-(2-(1-benzyl-2,5-dimethyl-1H-pyrrol-3-yl)-2-oxoethyl)-5-bromopyridin-2(1H)-one] | –
3 | 69% | 134 nM | 89 nM | C#Cc1ccc(=O)n(CC(=O)c2cc(C)n(Cc3ccccc3)c2C)c1 [Compound 3, 1-(2-(1-benzyl-2,5-dimethyl-1H-pyrrol-3-yl)-2-oxoethyl)-5-ethynylpyridin-2(1H)-one] | –
4 | 92% | 4.9 nM | 11 nM | Cc1c(C(=O)Cn2cc(Br)ccc2=O)cnn1Cc1ccccc1 [Compound 27, 1-(2-(1-benzyl-5-methyl-1H-pyrazol-4-yl)-2-oxoethyl)-5-bromopyridin-2(1H)-one] | –
5 | 79% | 69 nM | 23 nM | C#Cc1ccc(=O)n(CC(=O)c2cnn(Cc3ccccc3)c2C)c1 [Compound 29, 1-(2-(1-benzyl-5-methyl-1H-pyrazol-4-yl)-2-oxoethyl)-5-ethynylpyridin-2(1H)-one] | –
6 | < 10% | – | 8700 nM | Cc1c(C(=O)Cn2cc(Br)ccc2=O)cnn1Cc1cccc(C(=O)O)c1 [Compound 32, 3-((4-(2-(5-bromo-2-oxopyridin-1(2H)-yl)acetyl)-5-methyl-1H-pyrazol-1-yl)methyl)benzoic acid] | –
7 | 14% | – | 5600 nM | Cc1c(C(=O)Cn2cc(Br)ccc2=O)cnn1Cc1cccnc1 [Compound 33, 5-bromo-1-(2-(5-methyl-1-(pyridin-3-ylmethyl)-1H-pyrazol-4-yl)-2-oxoethyl)pyridin-2(1H)-one] | –
8 | 79% | 82 nM | 150 nM | C=Cc1ccc(=O)n(CC(=O)c2cnn(Cc3ccccc3)c2C)c1 [Compound 34, 1-(2-(1-benzyl-5-methyl-1H-pyrazol-4-yi)-2-oxoethyl)-5-vinylpyridin-2(1H)-one] | –
9 | 69% | – | 386 nM | C#Cc1ccc(=O)n(CC(=O)c2cnn(Cc3cccnc3)c2C)c1 [Compound 35, 5-ethynyl-1-(2-(5-methyl-1-(pyridin-3-ylmethyl)-1H-pyrazol-4-yl)-2-oxoethyl)pyridin-2(1H)-one] | –
10 | < 10% | – | 9800 nM | C#Cc1ccc(=O)n(CC(=O)c2cnn(Cc3cccc(C(=O)O)c3)c2C)c1 [Example 36, 3-((4-(2-(5-Ethynyl-2-oxopyridin-1(2H)-yl)acetyl)-5-methyl-1H-pyrazol-1-yl)methyl)benzoic Acid] | –
11 | 15% | – | 4400 nM | Cc1c(C(=O)Cn2ccc(Br)cc2=O)cnn1Cc1ccccc1 [Example 37, 1-(2-(1-Benzyl-5-methyl-1H-pyrazol-4-yl)-2-oxoethyl)-4-bromopyridin-2(1H)-one] | –
12 | 17% | – | 3600 nM | C#Cc1ccn(CC(=O)c2cnn(Cc3ccccc3)c2C)c(=O)c1 [Example 38] | –
13 | 69% | – | 364 nM | Cc1cc(Br)cn(CC(=O)c2cnn(Cc3ccccc3)c2C)c1=O [Example 39, 1-(2-(1-Benzyl-5-methyl-1H-pyrazol-4-yl)-2-oxoethyl)-5-bromo-3-methylpyridin-2(1H)-one] | –
14 | 67% | – | 395 nM | Cc1cc(=O)n(CC(=O)c2cnn(Cc3ccccc3)c2C)cc1Br [Example 40, 1-(2-(1-Benzyl-5-methyl-1H-pyrazol-4-yl)-2-oxoethyl)-5-bromo-4-methylpyridin-2(1H)-one] | –
15 | 63% | – | 694 nM | COc1cc(Br)cn(CC(=O)c2cnn(Cc3ccccc3)c2C)c1=O [Example 41, 1-(2-(1-Benzyl-5-methyl-1H-pyrazol-4-yl)-2-oxoethyl)-5-bromo-3-methoxypyridin-2(1H)-one] | –
16 | 64% | – | 567 nM | C#Cc1cc(C)c(=O)n(CC(=O)c2cnn(Cc3ccccc3)c2C)c1 [Example 42, 1-(2-(1-Benzyl-5-methyl-1H-pyrazol-4-yl)-2-oxoethyl)-5-ethynyl-3-methylpyridin-2(1H)-one] | –
17 | 70% | 200 nM | 297 nM | C#Cc1ccc(=O)n(CC(=O)c2cnn(Cc3ccccc3)c2C)n1 [Example 43, 2-(2-(1-Benzyl-5-methyl-1H-pyrazol-4-yl)-2-oxoethyl)-6-ethynylpyridazin-3(2H)-one] | –
18 | – | 72 nM | – | C#Cc1ccc(=O)n(CC(=O)c2nnn(Cc3ccccc3)c2C)c1 [Example 88, 1-(2-(1-Benzyl-5-methyl-1H-1,2,3-triazol-4-yl)-2-oxoethyl)-5-ethynylpyridin-2(1H)-one] | –
19 | – | 65 nM | – | C=Cc1ccc(=O)n(CC(=O)c2nnn(Cc3ccccc3)c2C)c1 [Example 89, 1-(2-(1-Benzyl-5-methyl-1H-1,2,3-triazol-4-yl)-2-oxoethyl)-5-vinylpyridin-2(1H)-one] | –
20 | < 10% | – | – | COC(=O)c1ccc(=O)n(CC(=O)c2cc(C)n(Cc3ccccc3)c2C)c1 [Example 90] | –
21 | 12% | – | – | Cc1cc(C(=O)Cn2cc(C#N)ccc2=O)c(C)n1CCc1ccccc1 [Example 91, 1-(2-(2,5-Dimethyl-1-phenethyl-1H-pyrrol-3-yl)-2-oxoethyl)-6-oxo-1,6-dihydropyridine-3-carbonitrile] | –
22 | 31% | – | – | Cc1cc(C(=O)Cn2cc(C#N)ccc2=O)c(C)n1C(C)c1ccccc1 (centres unmarked) [Example 92, 1-(2-(2,5-Dimethyl-1-(1-phenylethyl)-1H-pyrrol-3-yl)-2-oxoethyl)-6-oxo-1,6-dihydropyridine-3-carbonitrile] | –
23 | 10% | – | – | Cc1cc(C(=O)Cn2cc(C#N)ccc2=O)c(C)n1Cc1ccc2c(c1)OCO2 [Example 93, 1-(2-(1-(Benzo[d][1,3]dioxol-5-ylmethyl)-2,5-dimethyl-1H-pyrrol-3-yl)-2-oxoethyl)-6-oxo-1,6-dihydropyridine-3-carbonitrile] | –
24 | – | – | – | Cc1nn(C)c2nc(NNC(=O)Nc3cc(Cl)nc(Cl)c3)cc(C(C)C)c12 [JTE-013] | liver injury [4]: protect against liver injury; edema ratio [5]: dramatic decrease; infarct ratio [5]: dramatic decrease; neurological scores [5]: improved; S1PR2 levels in liver (immunoblot) (S1PR2 [6]): visible; serum ALB levels (bile duct ligated mice; orally by gavage (FIG. 2C)): remained constant; survival / mortality post bile duct ligation (bile duct ligated mice; orally by gavage, from one day post-surgery, eight-day study (FIG. 1A)): lower than that observed for the vehicle arm
